ChEMBL document CHEMBL3621174, “Synthesis and evaluation of new tyrosyl-tRNA synthetase inhibitors as antibacterial agents based on a N2-(arylacetyl)glycinanilide scaffold” (Eur J Med Chem, 2015)
≈ marks a conversion by molar mass, not a printed value.

Columns and labels:
Staphylococcus aureus [1] = test: Antibacterial activity against Staphylococcus aureus ATCC 25923 after 24 hr by MTT assay; format: functional; conditions: ATCC 25923, 24 h
Pseudomonas aeruginosa [2] = test: Antibacterial activity against Pseudomonas aeruginosa ATCC 9027 after 24 hr by MTT assay; format: functional; conditions: ATCC 9027, 24 h
Escherichia coli [3] = test: Antibacterial activity against Escherichia coli ATCC 35218 after 24 hr by MTT assay; format: functional; conditions: ATCC 35218, 24 h
Escherichia coli [4] = test: Antibacterial activity against Escherichia coli ATCC 8739 after 24 hr by MTT assay; format: functional; conditions: ATCC 8739, 24 h
[5] = Inhibition of Staphylococcus aureus Tyrosyl-tRNA synthetase using L-[ring-3,5-3H] tyrosine as substrate after 10 min by liquid scintillation assay
Staphylococcus aureus [6] = test: Antibacterial activity against Staphylococcus aureus ATCC 6538 after 24 hr by MTT assay; format: functional; conditions: ATCC 6538, 24 h
Staphylococcus aureus [7] = test: Potency index, ratio of penicillin G MIC to compound MIC for Staphylococcus aureus ATCC 6538; format: functional
Pseudomonas aeruginosa [8] = test: Potency index, ratio of penicillin G MIC to compound MIC for Pseudomonas aeruginosa ATCC 9027; format: functional

| SMILES | MIC (Staphylococcus aureus [1]) [µM] | MIC (Pseudomonas aeruginosa [2]) [µM] | MIC (Escherichia coli [3]) [µM] | MIC (Escherichia coli [4]) [µM] | IC50 [5] [µM] | MIC (Staphylococcus aureus [6]) [µM] | MIC50 (Pseudomonas aeruginosa [2]) [µM] | Ratio (Staphylococcus aureus [7]) | Ratio (Pseudomonas aeruginosa [8]) | MIC50 (Staphylococcus aureus [6]) [µM] |
| --- | --- | --- | --- | --- | --- | --- | --- | --- | --- | --- |
| COc1ccc(NC(=O)CNC(=O)Cc2ccccc2O)cc1 | > 160 | > 160 | > 160 | > 160 | 478 | > 160 | – | – | – | – |
| O=C(Cc1ccccc1Cl)NCC(=O)Nc1ccc([N+](=O)[O-])cc1 | 8.41 (≈ 2.92 µg/mL) | 34 (≈ 11.8 µg/mL) | 19.7 (≈ 6.85 µg/mL) | 13.5 (≈ 4.69 µg/mL) | 2.52 | 6.51 (≈ 2.26 µg/mL) | – | – | – | – |
| O=C(Cc1ccccc1)NCC(=O)Nc1cccc([N+](=O)[O-])c1 | 156 (≈ 48.9 µg/mL) | > 160 | > 160 | > 160 | 47.8 | 103 (≈ 32.3 µg/mL) | – | – | – | – |
| O=C(Cc1ccccc1)NCC(=O)Nc1ccccc1Cl | > 160 | > 160 | > 160 | > 160 | 205 | > 160 | – | – | – | – |
| O=C(Cc1cccc(Cl)c1)NCC(=O)Nc1ccc([N+](=O)[O-])cc1 | 2.36 (≈ 0.821 µg/mL) | 10.1 (≈ 3.51 µg/mL) | 9.5 (≈ 3.3 µg/mL) | 6.8 (≈ 2.36 µg/mL) | 0.7 | 1.84 (≈ 0.64 µg/mL) | 3.37 (≈ 1.17 µg/mL) | 3 | 3.9 | 0.52 (≈ 0.181 µg/mL) |
| O=C(Cc1ccccc1)NCC(=O)Nc1cc(Cl)cc(Cl)c1 | > 160 | > 160 | > 160 | > 160 | 133 | > 160 | – | – | – | – |
| O=C(Cc1ccccc1)NCC(=O)Nc1ccc(Cl)cc1 | 69.2 (≈ 21 µg/mL) | > 160 | 159 (≈ 48.1 µg/mL) | 123 (≈ 37.3 µg/mL) | 16.6 | 49.7 (≈ 15 µg/mL) | – | – | – | – |
| O=C(Cc1cccc(O)c1)NCC(=O)Nc1ccc([N+](=O)[O-])cc1 | 18.4 (≈ 6.06 µg/mL) | 72 (≈ 23.7 µg/mL) | 89.4 (≈ 29.4 µg/mL) | 47.1 (≈ 15.5 µg/mL) | 6.41 | 15.2 (≈ 5.01 µg/mL) | – | – | – | – |
| O=C(Cc1ccccc1)NCC(=O)Nc1ccccc1 | 73.5 (≈ 19.7 µg/mL) | > 160 | > 160 | 134 (≈ 35.9 µg/mL) | 19.3 | 52.7 (≈ 14.1 µg/mL) | – | – | – | – |
| O=C(Cc1cccc(F)c1)NCC(=O)Nc1ccc([N+](=O)[O-])cc1 | 4.11 (≈ 1.36 µg/mL) | 18.2 (≈ 6.03 µg/mL) | 19.6 (≈ 6.49 µg/mL) | 12.3 (≈ 4.08 µg/mL) | 1.14 | 3.14 (≈ 1.04 µg/mL) | – | – | – | – |
| COc1ccc(NC(=O)CNC(=O)Cc2cccc(O)c2)cc1 | > 160 | > 160 | > 160 | > 160 | 279 | > 160 | – | – | – | – |
| COc1ccc(NC(=O)CNC(=O)Cc2ccc(Cl)cc2)cc1 | > 160 | > 160 | > 160 | > 160 | 70.1 | > 160 | – | – | – | – |
| COc1ccc(NC(=O)CNC(=O)Cc2ccc(O)cc2)cc1 | > 160 | > 160 | > 160 | > 160 | 319 | > 160 | – | – | – | – |
| O=C(Cc1cccc(Br)c1)NCC(=O)Nc1ccc(Br)cc1 | > 160 | > 160 | > 160 | > 160 | 58.4 | 97.2 (≈ 41.4 µg/mL) | – | – | – | – |
| O=C(Cc1ccc(F)cc1)NCC(=O)Nc1ccc([N+](=O)[O-])cc1 | 17 (≈ 5.63 µg/mL) | 65.6 (≈ 21.7 µg/mL) | 75.8 (≈ 25.1 µg/mL) | 42.3 (≈ 14 µg/mL) | 5.25 | 14.1 (≈ 4.67 µg/mL) | – | – | – | – |
| CC1(C)S[C@@H]2[C@H](NC(=O)Cc3ccccc3)C(=O)N2[C@H]1C(=O)O [PENICILLIN G] | 9.28 (≈ 3.1 µg/mL) | – | – | – | – | 7.13 (≈ 2.38 µg/mL) | – | – | – | – |
| O=C(Cc1ccccc1Cl)NCC(=O)Nc1ccc(Br)cc1 | 103 (≈ 39.5 µg/mL) | > 160 | > 160 | > 160 | 77.8 | 69.7 (≈ 26.6 µg/mL) | – | – | – | – |
| O=C(Cc1ccccc1)NCC(=O)Nc1cc(F)cc(F)c1 | 47.7 (≈ 14.5 µg/mL) | 148 (≈ 45.1 µg/mL) | > 160 | 120 (≈ 36.5 µg/mL) | 13.1 | 40.5 (≈ 12.3 µg/mL) | – | – | – | – |

| SMILES | MIC (Staphylococcus aureus [1]) [µM] | MIC (Pseudomonas aeruginosa [2]) [µM] | MIC (Escherichia coli [3]) [µM] | MIC (Escherichia coli [4]) [µM] | IC50 [5] [µM] | MIC (Staphylococcus aureus [6]) [µM] | MIC50 (Pseudomonas aeruginosa [2]) [µM] | Ratio (Staphylococcus aureus [7]) | Ratio (Pseudomonas aeruginosa [8]) | MIC50 (Staphylococcus aureus [6]) [µM] |
| --- | --- | --- | --- | --- | --- | --- | --- | --- | --- | --- |
| COc1ccc(NC(=O)CNC(=O)Cc2ccccc2)cc1 | > 160 | > 160 | > 160 | > 160 | 82 | > 160 | – | – | – | – |
| COc1ccc(NC(=O)CNC(=O)Cc2cccc(Cl)c2)cc1 | 148 (≈ 49.3 µg/mL) | > 160 | > 160 | > 160 | 66.5 | 148 (≈ 49.3 µg/mL) | – | – | – | – |
| COc1ccc(NC(=O)CNC(=O)Cc2ccc(OC)c(OC)c2)cc1 | > 160 | > 160 | > 160 | > 160 | 556 | > 160 | – | – | – | – |
| COc1ccc(CC(=O)NCC(=O)Nc2ccc([N+](=O)[O-])cc2)cc1OC | > 160 | > 160 | > 160 | > 160 | 88.5 | > 160 | – | – | – | – |
| COc1ccc(NC(=O)CNC(=O)Cc2ccccc2)cc1OC | > 160 | > 160 | > 160 | > 160 | 162 | > 160 | – | – | – | – |
| COc1ccc(NC(=O)CNC(=O)Cc2ccccc2Cl)cc1 | > 160 | > 160 | > 160 | > 160 | 189 | > 160 | – | – | – | – |
| O=C(Cc1ccccc1)NCC(=O)Nc1ccc(Br)cc1 | > 160 | > 160 | > 160 | > 160 | 50.6 | 113 (≈ 39.3 µg/mL) | – | – | – | – |
| COc1ccc(NC(=O)CNC(=O)Cc2ccc(F)cc2)cc1 | > 160 | > 160 | > 160 | > 160 | 112 | > 160 | – | – | – | – |
| Cc1ccc(CC(=O)NCC(=O)Nc2ccc([N+](=O)[O-])cc2)cc1 | 132 (≈ 43.2 µg/mL) | > 160 | > 160 | > 160 | 44.6 | 80.7 (≈ 26.4 µg/mL) | – | – | – | – |
| O=C(Cc1cccc(Cl)c1)NCC(=O)Nc1ccc(Br)cc1 | 24.9 (≈ 9.5 µg/mL) | 96.1 (≈ 36.7 µg/mL) | 83.4 (≈ 31.8 µg/mL) | 62.4 (≈ 23.8 µg/mL) | 8.36 | 20.9 (≈ 7.98 µg/mL) | – | – | – | – |
| O=C(Cc1ccccc1)NCC(=O)Nc1cccc(Cl)c1 | > 160 | > 160 | > 160 | > 160 | 144 | > 160 | – | – | – | – |
| NC[C@H]1O[C@H](O[C@H]2[C@H](O)[C@@H](O[C@H]3O[C@H](CO)[C@@H](O)[C@H](N)[C@H]3O)[C@H](N)C[C@@H]2N)[C@H](O)[C@@H](O)[C@@H]1O [KANAMYCIN] | – | 7.16 (≈ 3.47 µg/mL) | 4.35 (≈ 2.11 µg/mL) | 1.26 (≈ 0.61 µg/mL) | – | – | – | – | – | – |
| COc1ccc(NC(=O)CNC(=O)Cc2cccc(F)c2)cc1 | > 160 | > 160 | > 160 | > 160 | 92.7 | > 160 | – | – | – | – |
| O=C(Cc1ccc(O)cc1)NCC(=O)Nc1ccc([N+](=O)[O-])cc1 | 34.1 (≈ 11.2 µg/mL) | 134 (≈ 44.1 µg/mL) | 144 (≈ 47.4 µg/mL) | 86.9 (≈ 28.6 µg/mL) | 10.2 | 28.6 (≈ 9.42 µg/mL) | – | – | – | – |
| O=C(Cc1ccc(Cl)cc1)NCC(=O)Nc1cc(Cl)cc(Cl)c1 | > 160 | > 160 | > 160 | > 160 | 254 | > 160 | – | – | – | – |
| Cc1ccc(NC(=O)CNC(=O)Cc2cccc(Cl)c2)cc1 | 91.1 (≈ 28.9 µg/mL) | > 160 | > 160 | 155 (≈ 49.2 µg/mL) | 21.4 | 64.9 (≈ 20.6 µg/mL) | – | – | – | – |
| O=C(Cc1ccccc1)NCC(=O)Nc1ccc([N+](=O)[O-])cc1 | 3.67 (≈ 1.15 µg/mL) | 18.2 (≈ 5.7 µg/mL) | 15.8 (≈ 4.95 µg/mL) | 11.2 (≈ 3.51 µg/mL) | 0.87 | 2.81 (≈ 0.88 µg/mL) | – | – | – | – |
